Data published in patent publication US6440984B1, “Use of aryl-substituted pyrimidines as insecticidal and acaricidal agents” (BASF Aktiengesellschaft, priority 1998, dated 2002).

What was measured:
Assay type in all cases: in vivo
[1] = system: Diabrotica Virgifera Virgifera Leconte, 3rd Instar Western Corn Rootworm (WCR); experiment: Western corn rootworm (WCR) soil test, mortality at 5 days; conditions: rating scale; for pest or weed control at 50 ppm: Diabrotica virgifera, 120 h, read-out: WCR 2^ND-SOIL 50 (ppm)
Description: Diabrotica Virgifera Virgifera Leconte, 3rd Instar Western Corn Rootworm (WCR) One cc of fine talc is placed in a 30 mL wide-mouth screw-top glass jar. One mL of the appropriate acetone test solution is pipetted onto the talc so as to provide 1.25 mg of active ingredient per jar. The jars are set under a gentle air flow until the acetone is evaporated. The dried talc is loosened, 1 cc of millet seed is added to serve as food for the insects and 25 mL of moist soil is added to each jar. The jar is capped and the contents thoroughly mixed mechanically. Following this, ten 3rd instar rootworms are added to each jar and the jars are loosely capped to allow air exchange for the larvae. The treatments are held for 5 days when mortality counts are made. Missing larvae are presumed dead, since they decompose rapidly and can not be found. The concentrations of active ingredient used in this test correspond approximately to 50 kg/ha.

[2] = system: Tetranychus Urticae (OP-resistant strain), 2-spotted Spider Mite (TSM); experiment: Two-spotted spider mite (TSM) plant-dip test, mortality after 2 days; conditions: rating scale; for pest or weed control at 300 ppm: Tetranychus urticae, 48 h, read-out: TSM AD-FOLIAR 300 (ppm)
Description: (§1) Test solutions are prepared by dissolving the test compound in a 35% acetone in water mixture to give a concentration of 10,000 ppm. Subsequent dilutions are made with water as needed.
Tetranychus Urticae (OP-resistant strain), 2-spotted Spider Mite (TSM)
Sieva lima bean plants with primary leaves expanded to 7-8 cm are selected and cut back to one plant per pot. A small piece is cut from an infested leaf taken from the main colony and placed on each leaf of the test plants. This is done about 2 hours before treatment to allow the mites to move over to the test plant to lay eggs. The size of the cut, infested leaf is varied to obtain about 100 mites per leaf. At the time of test treatment, the piece of leaf used to transfer the mites is removed and discarded. The newly-infested plants are dipped in the test solution for 3 seconds with agitation and set in the hood to dry. After 2 days, one leaf is removed and mortality counts are made.

[3] = system: Spodoptera Eridania, 3rd Instar Larvae, Southern Armyworm (SAW); experiment: Southern armyworm (SAW) leaf-dip test, observations at 5 days; conditions: Southern Army Worm, rating scale; for pest or weed control at 1000 ppm: Spodoptera eridania, foliar, 120 h, read-out: SAW 2^ND-FOLIAR 1000 (ppm)
Description: as §1
Spodoptera Eridania, 3rd Instar Larvae, Southern Armyworm (SAW)
A Sieva lima bean leaf expanded to 7-8 cm in length is dipped in the test solution with agitation for 3 seconds and allowed to dry in a hood. The leaf is then placed in a 100×10 mm petri dish containing a damp filter paper on the bottom and ten 3rd instar caterpillars. At 5 days, observations are made of mortality, reduced feeding, or any interference with normal molting.

[4] = system: Aphis Fabae, Mixed Instar, Bean Aphid (BA); experiment: Bean aphid (BA) foliar spray test, mortality after 2 days; conditions: rating scale; for pest or weed control at 300 ppm: Aphis fabae, 48 h, read-out: BA AD-FOLIAR 300 (ppm)
Description: as §1
Aphis Fabae, Mixed Instar, Bean Aphid (BA)
Pots containing single nasturtium plants (Tropaeolum sp.) about 5 cm tall are infested with about 100-200 aphids one day before the test. Each pot is sprayed with the test solution for 2 revolutions of a 4 rpm turntable in a hood. The spray is directed to give complete coverage of the plants and aphids. The sprayed pots are set on their sides on white trays and held for 2 days, following which mortality estimates are made. Essentially the same method is used with respect to cotton aphid (CA).

FC(F)(F)c1ccc(Oc2nccc(-c3ccccc3)n2)cc1Cl [Compound 7]
WCR 2^ND-SOIL 50 (ppm) [1]: C (C 76-100% kill)

FC(F)(F)c1cccc(-c2ccnc(Oc3ccc(Cl)c(Cl)c3)n2)c1 [Compound 18]
TSM AD-FOLIAR 300 (ppm) [2]: A (A 0-45% kill) | SAW 2^ND-FOLIAR 1000 (ppm) [3]: A (A 0-45% kill) | BA AD-FOLIAR 300 (ppm) [4]: A (A 0-45% kill)

O=[N+]([O-])c1ccc(Oc2nccc(-c3cccc(C(F)(F)F)c3)n2)cc1C(F)(F)F [Compound 19]
BA AD-FOLIAR 300 (ppm) [4]: A (A 0-45% kill) | WCR 2^ND-SOIL 50 (ppm) [1]: C (C 76-100% kill)

Fc1ccc(Oc2nccc(-c3cccc(C(F)(F)F)c3)n2)cc1C(F)(F)F [Compound 21]
TSM AD-FOLIAR 300 (ppm) [2]: A (A 0-45% kill) | BA AD-FOLIAR 300 (ppm) [4]: A (A 0-45% kill) | WCR 2^ND-SOIL 50 (ppm) [1]: C (C 76-100% kill)

Fc1ccc(-c2ccnc(Oc3cccc(C(F)(F)F)c3)n2)cc1 [Compound 23]
TSM AD-FOLIAR 300 (ppm) [2]: A (A 0-45% kill) | WCR 2^ND-SOIL 50 (ppm) [1]: B (B 45-75% kill)

CC(C)(C)c1ccc(-c2ccnc(Oc3ccc(F)c(C(F)(F)F)c3)n2)cc1 [Compound 24]
BA AD-FOLIAR 300 (ppm) [4]: A (A 0-45% kill) | WCR 2^ND-SOIL 50 (ppm) [1]: C (C 76-100% kill)

CC(C)(C)c1ccc(-c2ccnc(Oc3ccc(Cl)c(Cl)c3)n2)cc1 [Compound 27]
BA AD-FOLIAR 300 (ppm) [4]: B (B 45-75% kill) | WCR 2^ND-SOIL 50 (ppm) [1]: C (C 76-100% kill)

Fc1ccc(Oc2nccc(-c3ccc(C(F)(F)F)cc3)n2)cc1C(F)(F)F [Compound 29]
TSM AD-FOLIAR 300 (ppm) [2]: B (B 45-75% kill) | SAW 2^ND-FOLIAR 1000 (ppm) [3]: A (A 0-45% kill) | BA AD-FOLIAR 300 (ppm) [4]: A (A 0-45% kill)

FC(F)(F)c1ccc(-c2ccnc(Oc3cccc(C(F)(F)F)c3)n2)cc1 [Compound 30]
TSM AD-FOLIAR 300 (ppm) [2]: B (B 45-75% kill) | SAW 2^ND-FOLIAR 1000 (ppm) [3]: A (A 0-45% kill) | BA AD-FOLIAR 300 (ppm) [4]: A (A 0-45% kill)

COc1ccc(-c2ccnc(Oc3ccc(Cl)c(C(F)(F)F)c3)n2)cc1 [Compound 35]
WCR 2^ND-SOIL 50 (ppm) [1]: C (C 76-100% kill)

FC(F)(F)Oc1cccc(-c2ccnc(Oc3ccc(Cl)c(C(F)(F)F)c3)n2)c1 [Compound 39]
TSM AD-FOLIAR 300 (ppm) [2]: A (A 0-45% kill) | WCR 2^ND-SOIL 50 (ppm) [1]: B (B 45-75% kill)

Fc1ccc(Oc2nccc(-c3ccc(OC(F)(F)F)cc3)n2)cc1C(F)(F)F [Compound 47]
TSM AD-FOLIAR 300 (ppm) [2]: B (B 45-75% kill) | SAW 2^ND-FOLIAR 1000 (ppm) [3]: A (A 0-45% kill) | BA AD-FOLIAR 300 (ppm) [4]: A (A 0-45% kill)

FC(F)(F)Oc1ccc(-c2ccnc(Oc3cccc(C(F)(F)F)c3)n2)cc1 [Compound 48]
TSM AD-FOLIAR 300 (ppm) [2]: B (B 45-75% kill) | SAW 2^ND-FOLIAR 1000 (ppm) [3]: A (A 0-45% kill) | BA AD-FOLIAR 300 (ppm) [4]: B (B 45-75% kill)

FC(F)(F)Oc1ccc(-c2ccnc(Oc3ccc(Cl)c(Cl)c3)n2)cc1 [Compound 50]
SAW 2^ND-FOLIAR 1000 (ppm) [3]: A (A 0-45% kill) | BA AD-FOLIAR 300 (ppm) [4]: B (B 45-75% kill) | WCR 2^ND-SOIL 50 (ppm) [1]: C (C 76-100% kill)

Fc1cc(-c2ccnc(Oc3ccc(Cl)c(C(F)(F)F)c3)n2)cc(C(F)(F)F)c1 [Compound 51]
SAW 2^ND-FOLIAR 1000 (ppm) [3]: B (B 45-75% kill) | WCR 2^ND-SOIL 50 (ppm) [1]: C (C 76-100% kill)

Fc1cc(-c2ccnc(Oc3ccccc3)n2)cc(C(F)(F)F)c1 [Compound 54]
TSM AD-FOLIAR 300 (ppm) [2]: C (C 76-100% kill) | SAW 2^ND-FOLIAR 1000 (ppm) [3]: C (C 76-100% kill) | BA AD-FOLIAR 300 (ppm) [4]: C (C 76-100% kill)

Fc1cc(-c2ccnc(Oc3ccc(F)c(Cl)c3)n2)cc(C(F)(F)F)c1 [Compound 56]
WCR 2^ND-SOIL 50 (ppm) [1]: B (B 45-75% kill)

O=[N+]([O-])c1ccc(Oc2nccc(-c3cc(F)cc(C(F)(F)F)c3)n2)cc1C(F)(F)F [Compound 57]
WCR 2^ND-SOIL 50 (ppm) [1]: C (C 76-100% kill)

Fc1cc(-c2ccnc(Oc3cc(Cl)cc(Cl)c3)n2)cc(C(F)(F)F)c1 [Compound 59]
BA AD-FOLIAR 300 (ppm) [4]: B (B 45-75% kill) | WCR 2^ND-SOIL 50 (ppm) [1]: C (C 76-100% kill)

Fc1cc(-c2ccnc(Oc3cc(C(F)(F)F)cc(C(F)(F)F)c3)n2)cc(C(F)(F)F)c1 [Compound 60]
SAW 2^ND-FOLIAR 1000 (ppm) [3]: C (C 76-100% kill) | WCR 2^ND-SOIL 50 (ppm) [1]: C (C 76-100% kill)

CSc1cc(-c2ccc(Cl)c(Cl)c2)nc(Oc2ccc(F)c(C(F)(F)F)c2)n1 [Compound 85, 2-(3-Trifluoromethyl-4-fluorophenoxy)-4-(3,4-dichlorophenyl)-6-thiomethylpyrimidine]
pest or weed control at 50 ppm [1]: 76 to 100%

CS(=O)(=O)c1cc(-c2ccc(Cl)c(Cl)c2)nc(Oc2ccc(F)c(C(F)(F)F)c2)n1 [Compound 92, 2-(3-trifluoromethyl-4-fluorophenoxy)-4-(3,4-dichlorophenyl)-6-methylsulfonylpyrimidine]
pest or weed control at 50 ppm [1]: 76 to 100%

CSc1cc(-c2ccc(Cl)cc2)nc(Oc2ccc(F)c(C(F)(F)F)c2)n1 [Compound 114]
pest or weed control at 50 ppm [1]: 76 to 100%

CSc1cc(-c2cccc(Cl)c2)nc(Oc2ccc(Cl)c(C(F)(F)F)c2)n1 [Compound 125]
WCR 2^ND-SOIL 50 (ppm) [1]: B (B 45-75% kill)

Fc1ccc(Oc2nccc(-c3ccc(C(F)(F)F)cc3)n2)cc1C(F)(F)F [Compound 129]
pest or weed control at 1000 ppm [3]: 0 to 45% | pest or weed control at 300 ppm [4]: 45 to 75% | pest or weed control at 50 ppm [1]: 45 to 75%

CCc1cnc(Oc2cccc(C(F)(F)F)c2)nc1-c1ccc(Cl)cc1 [Compound 131]
pest or weed control at 1000 ppm [3]: 0 to 45% | pest or weed control at 50 ppm [1]: 76 to 100%

CCc1cnc(Oc2ccc(F)c(C(F)(F)F)c2)nc1-c1ccc(Cl)cc1 [Compound 132]
pest or weed control at 300 ppm [2]: 45 to 75% | pest or weed control at 1000 ppm [3]: 0 to 45% | pest or weed control at 300 ppm [4]: 76 to 100%

Fc1ccc(-c2ccnc(Oc3ccc(C(F)(F)F)c(F)c3)n2)cc1 [Compound 135]
pest or weed control at 300 ppm [2]: 0 to 45% | pest or weed control at 1000 ppm [3]: 0 to 45% | pest or weed control at 300 ppm [4]: 0 to 45%

Fc1ccc(-c2ccnc(Oc3cccc(C(F)(F)F)c3)n2)cc1 [Compound 136]
pest or weed control at 300 ppm [2]: 0 to 45% | pest or weed control at 1000 ppm [3]: 0 to 45%

Fc1ccc(Oc2nccc(-c3ccc(Cl)cc3)n2)cc1F [Compound 139]
pest or weed control at 300 ppm [4]: 76 to 100% | pest or weed control at 50 ppm [1]: 76 to 100%

FC(F)(F)c1ccc(-c2ccnc(Oc3cccc(C(F)(F)F)c3)n2)cc1 [Compound 144]
pest or weed control at 1000 ppm [3]: 0 to 45% | pest or weed control at 300 ppm [4]: 45 to 75% | pest or weed control at 50 ppm [1]: 76 to 100%

FC(F)(F)c1ccc(-c2ccnc(Oc3ccc(Cl)c(C(F)(F)F)c3)n2)cc1 [Compound 145]
pest or weed control at 1000 ppm [3]: 0 to 45% | pest or weed control at 300 ppm [4]: 45 to 75% | pest or weed control at 50 ppm [1]: 76 to 100%

CCc1cnc(Oc2ccc(F)c(C(F)(F)F)c2)nc1-c1cccc(C(F)(F)F)c1 [Compound 156]
pest or weed control at 300 ppm [2]: 45 to 75% | pest or weed control at 1000 ppm [3]: 0 to 45% | pest or weed control at 300 ppm [4]: 76 to 100%

CCc1cnc(Oc2ccc(Cl)c(C(F)(F)F)c2)nc1-c1cccc(C(F)(F)F)c1 [Compound 158]
pest or weed control at 1000 ppm [3]: 0 to 45% | pest or weed control at 50 ppm [1]: 76 to 100%

CCCc1cnc(Oc2cccc(C(F)(F)F)c2)nc1-c1cccc(C(F)(F)F)c1 [Compound 159]
pest or weed control at 300 ppm [2]: 45 to 75% | pest or weed control at 1000 ppm [3]: 0 to 45%
